Some test systems named below: RXF-631 renal; DLD-1 colon; LXFL 529 NSCLC; DU-145 prostate; MDA-N; HOP-18 NSCLC; SN12K1 renal; P388/ADR leukemia; P388 leukemia; DMS 273 small cell lung.
What all share (assay): NCI tumour cell line growth inhibition, 48 h

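A five-concentration, 48-hour dose response in 96-well plates underlies each endpoint, interpolated linearly between surrounding concentrations. The concentration for 50% growth inhibition is given as GI50. The concentration for full growth arrest is given as TGI.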 Where only a bound is given, the exact number is not on record here.

`O=S(O)c1cc(Cl)c(O)c(Cl)c1`: the TGI in the test with RXF-631 renal, with DLD-1 colon and in the test on LXFL 529 NSCLC was above 100 µM throughout.
As for `COc1ccc2c3/c(=C\c4ccc(N(C)C)cc4)c4ccccc4n3[n+](C)c2c1`, in the test on DU-145 prostate, the GI50 was 0.236 µM and the TGI came to 1.81 µM.
On to `COc1ccccc1C(=O)OCC1CCCN2CCCCC12` (stereo not drawn), for which the TGI in the test with DU-145 prostate is above 100 µM.
`Cc1cc(O)c2c(c1)C(C1c3cccc(O)c3C(=O)c3c(O)cc(C)cc31)c1cccc(O)c1C2=O` (stereo not drawn): the TGI in the test on DU-145 prostate came out at 18.6 µM; in the test on MDA-N, 20.8 µM.
Consider `O=C1C(=C([O-])c2ccccc2)C(=O)c2ccccc21.O=C1C(=C([O-])c2ccccc2)C(=O)c2ccccc21.[Ni+2]`, for which the values for the GI50 in the test on HOP-18 NSCLC and in the test with DLD-1 colon were 27.9 µM and 40.2 µM, respectively. The TGI in the test on HOP-18 NSCLC and in the test on DLD-1 colon was above 100 µM each time.
Consider `O=c1[nH]c(=O)n(C2CC(O)C(CO)O2)cc1Br` (stereo not drawn), for which the TGI in the test with DU-145 prostate and with MDA-N was above 100 µM each time.
Consider `CC1OC(O[C@@H]2C=C3CC[C@@H]4[C@H](CC[C@]5(C)[C@@H](c6ccc(=O)oc6)CC[C@]45O)[C@@]3(C)CC2)C(O)C(OC2OC(CO)C(O)C(O)C2O)C1O` (stereo partly drawn), for which the TGI in the test on DU-145 prostate stood at 0.0111 µM; in the test with SN12K1 renal, 0.025 µM; with P388/ADR leukemia it was 142 µM; with P388 leukemia, 115 µM; in the test with DLD-1 colon, 0.0253 µM.
On to `COc1cc(O)c(Cc2ccccc2O)c(O)c1C(=O)CCc1ccccc1`, for which the TGI with SN12K1 renal is 19.5 µM; in the test on HOP-18 NSCLC it was 4.53 µM; in the test on P388/ADR leukemia, 14 µM; in the test with P388 leukemia, 13.5 µM; with DLD-1 colon it was 30.7 µM; in the test with DMS 273 small cell lung, 13.1 µM.
`NC(=O)/N=C/c1c(O)c2ccccc2oc1=O`: the TGI in the test with DLD-1 colon, with DMS 273 small cell lung and with LXFL 529 NSCLC was above 100 µM each time.

(Values after PubChem BioAssay (NCI).)
